Assay results from patent publication US7537891B2, “Identification of polynucleotides for predicting activity of compounds that interact with and/or modulate protein tyrosine kinases and/or protein tyrosine kinase pathways in breast cells” (Bristol-Myers Squibb Company, priority 2002, dated 2009).

What was measured:
Test in all cases: In vitro cytotoxicity assay (MTS)
Format in all cases: cell-based, human
Parameters in all cases: key to True Class: “S” represents Sensitive; “R” represents Resistant
[1] = tested on: MDA-MB-435S breast cell line
Protocol: (§1) The protein tyrosine kinase inhibitor compound (described in international application WO 00/62778, published Oct. 26, 2000) was tested for cytotoxicity in vitro against a panel of twenty-three human breast cell lines available from the American Type Culture Collection, ATCC, except H3396, which was obtained from Pacific Northwest Research Institute, Seattle Wash. The MCF7/Her2 cell line was established by stable transfection of MCF7 cells with the HER2 gene. Cytotoxicity was assessed in cells by the MTS (3-(4,5-dimethylthiazol-2-yl)-5-(3-carboxymethoxyphenyl)-2-(4-sulphenyl)-2H-tetrazolium, inner salt) assay (T. L. Riss et al., 1992, Mol. Biol. Cell, 3 (Suppl.):184a).
(§2) To carry out the assays, the breast cells were plated at 4,000 cells/well in 96 well microtiter plates, and 24 hours later, serially diluted drugs were added. The concentration range for the protein tyrosine kinase inhibitor compound BMS-A used in the cytotoxicity assay was from 5 μg/ml to 0.0016 μg/ml (roughly 10 μM to 0.0032 μM).
(§3) The cells were incubated at 37° C. for 72 hours at which time the tetrazolium dye, MTS (333 μg/ml final concentration), in combination with the electron coupling agent phenazine methosulfate (25 μM final concentration), was added. A dehydrogenase enzyme in live cells reduces the MTS to a form that absorbs light and can be quantified spectrophotometrically at 492 nM. The greater the absorbency the greater the number of live cells. The results are expressed as an IC50, which is the drug concentration required to inhibit cell proliferation (i.e. absorbance at 492 nm) to 50% of that of untreated control cells. The mean IC50 and standard deviation (SD) from multiple tests for each cell line were calculated.

H3396 breast cell line = tested on: H3396 breast cell line
Protocol: as §1, §2, §3

HCC1806 breast cell line = tested on: HCC1806 breast cell line
Protocol: as §1, §2, §3

HCC38 breast cell line = tested on: HCC38 breast cell line
Protocol: as §1, §2, §3

[2] = tested on: MDA-MB-157 breast cell line
Protocol: as §1, §2, §3

HCC1419 breast cell line = tested on: HCC1419 breast cell line
Protocol: as §1, §2, §3

ZR-75-1 breast cell line = tested on: ZR-75-1 breast cell line
Protocol: as §1, §2, §3

[3] = tested on: MDA-MB-231 breast cell line
Protocol: as §1, §2, §3

HCC1954 breast cell line = tested on: HCC1954 breast cell line
Protocol: as §1, §2, §3

BT-549 breast cell line = tested on: BT-549 breast cell line
Protocol: as §1, §2, §3

SK-BR-3 breast cell line = tested on: SK-BR-3 breast cell line
Protocol: as §1, §2, §3

HCC70 breast cell line = tested on: HCC70 breast cell line
Protocol: as §1, §2, §3

HS578T breast cell line = tested on: HS578T breast cell line
Protocol: as §1, §2, §3

MCF7 breast cell line = tested on: MCF7 breast cell line
Protocol: as §1, §2, §3

[4] = tested on: MDA-MB-453 breast cell line
Protocol: as §1, §2, §3

[5] = 72 hours, mean of 2 to 5 determinations, read-out: mean IC50 (μM) to BMS-A
[6] = assigned as in Table 1, based on the IC50 results for BMS-A
[7] = resistance/sensitivity to BMS-A based on IC50

Question: `Cc1nc(Nc2ncc(C(=O)Nc3c(C)cccc3Cl)s2)cc(N2CCN(CCO)CC2)n1` [BMS-A] was tested. Which IC50 ([1]; MDA-MB-435S, 72 hours, mean of 2 to 5 determinations, read-out: mean IC50 (μM) to BMS-A) did it give?
Answer: 7.78 µM

Question: What about the Classification ([1]; MDA-MB-435S, resistance/sensitivity to BMS-A based on IC50) of the same molecule?
Answer: Resistant (those having a log10(IC50) above the mean log10(IC50) were considered to be resistant)

Question: And the “True Class” value ([1]; MDAMB435S, assigned as in Table 1, based on the IC50 results for BMS-A)?
Answer: R

Question: What about the IC50 (H3396 breast cell line; [5]) of the same molecule?
Answer: 8.2 µM

Question: And the “True Class” value (H3396 breast cell line; [6])?
Answer: R

Question: What about the Classification (H3396 breast cell line; [7]) of the same molecule?
Answer: Resistant (those having a log10(IC50) above the mean log10(IC50) were considered to be resistant)

Question: What about the IC50 (HCC1806 breast cell line; [5]) of the same molecule?
Answer: 0.219 µM

Question: And the “True Class” value (HCC1806 breast cell line; [6])?
Answer: S

Question: And the Classification (HCC1806 breast cell line; [7])?
Answer: Sensitive (The cell lines with a log10(IC50) below the mean log10(IC50) were defined as sensitive to the compound)

Question: What about the IC50 (HCC38 breast cell line; [5]) of the same molecule?
Answer: 6.63 µM

Question: What about the “True Class” value (HCC38 breast cell line; [6]) of the same molecule?
Answer: R

Question: And the Classification (HCC38 breast cell line; [7])?
Answer: Resistant (those having a log10(IC50) above the mean log10(IC50) were considered to be resistant)

Question: And the IC50 ([2]; MDA-MB-157, 72 hours, mean of 2 to 5 determinations, read-out: mean IC50 (μM) to BMS-A)?
Answer: 0.0055 µM

Question: What about the Classification ([2]; MDA-MB-157, resistance/sensitivity to BMS-A based on IC50) of the same molecule?
Answer: Sensitive (The cell lines with a log10(IC50) below the mean log10(IC50) were defined as sensitive to the compound)

Question: What about the “True Class” value ([2]; MDAMB157, assigned as in Table 1, based on the IC50 results for BMS-A) of the same molecule?
Answer: S

Question: And the IC50 (HCC1419 breast cell line; [5])?
Answer: 2.51 µM

Question: What about the “True Class” value (HCC1419 breast cell line; [6]) of the same molecule?
Answer: R

Question: And the Classification (HCC1419 breast cell line; [7])?
Answer: Resistant (those having a log10(IC50) above the mean log10(IC50) were considered to be resistant)

Question: What about the IC50 (ZR-75-1 breast cell line; ZR-75-1, 72 hours, mean of 2 to 5 determinations, read-out: mean IC50 (μM) to BMS-A) of the same molecule?
Answer: > 9.52 µM

Question: And the Classification (ZR-75-1 breast cell line; ZR-75-1, resistance/sensitivity to BMS-A based on IC50)?
Answer: Resistant (those having a log10(IC50) above the mean log10(IC50) were considered to be resistant)

Question: And the “True Class” value (ZR-75-1 breast cell line; Zr-75-1, assigned as in Table 1, based on the IC50 results for BMS-A)?
Answer: R

Question: And the IC50 ([3]; MDA-MB-231, 72 hours, mean of 2 to 5 determinations, read-out: mean IC50 (μM) to BMS-A)?
Answer: 0.0095 µM

Question: What about the Classification ([3]; MDA-MB-231, resistance/sensitivity to BMS-A based on IC50) of the same molecule?
Answer: Sensitive (The cell lines with a log10(IC50) below the mean log10(IC50) were defined as sensitive to the compound)

Question: What about the “True Class” value ([3]; MDAMB231, assigned as in Table 1, based on the IC50 results for BMS-A) of the same molecule?
Answer: S

Question: What about the IC50 (HCC1954 breast cell line; [5]) of the same molecule?
Answer: 0.0242 µM

Question: And the “True Class” value (HCC1954 breast cell line; [6])?
Answer: S

Question: And the Classification (HCC1954 breast cell line; [7])?
Answer: Sensitive (The cell lines with a log10(IC50) below the mean log10(IC50) were defined as sensitive to the compound)

Question: And the “True Class” value (BT-549 breast cell line; BT549, assigned as in Table 1, based on the IC50 results for BMS-A)?
Answer: R

Question: What about the IC50 (BT-549 breast cell line; BT-549, 72 hours, mean of 2 to 5 determinations, read-out: mean IC50 (μM) to BMS-A) of the same molecule?
Answer: 9.06 µM

Question: And the Classification (BT-549 breast cell line; BT-549, resistance/sensitivity to BMS-A based on IC50)?
Answer: Resistant (those having a log10(IC50) above the mean log10(IC50) were considered to be resistant)

Question: And the IC50 (SK-BR-3 breast cell line; SK-BR-3, 72 hours, mean of 2 to 5 determinations, read-out: mean IC50 (μM) to BMS-A)?
Answer: 2.75 µM

Question: What about the Classification (SK-BR-3 breast cell line; SK-BR-3, resistance/sensitivity to BMS-A based on IC50) of the same molecule?
Answer: Resistant (those having a log10(IC50) above the mean log10(IC50) were considered to be resistant)

Question: And the “True Class” value (SK-BR-3 breast cell line; SkBr3, assigned as in Table 1, based on the IC50 results for BMS-A)?
Answer: R

Question: What about the IC50 (HCC70 breast cell line; [5]) of the same molecule?
Answer: 0.0337 µM

Question: What about the “True Class” value (HCC70 breast cell line; [6]) of the same molecule?
Answer: S

Question: And the Classification (HCC70 breast cell line; [7])?
Answer: Sensitive (The cell lines with a log10(IC50) below the mean log10(IC50) were defined as sensitive to the compound)

Question: What about the IC50 (HS578T breast cell line; HS578T, 72 hours, mean of 2 to 5 determinations, read-out: mean IC50 (μM) to BMS-A) of the same molecule?
Answer: 0.647 µM

Question: And the Classification (HS578T breast cell line; HS578T, resistance/sensitivity to BMS-A based on IC50)?
Answer: Sensitive (The cell lines with a log10(IC50) below the mean log10(IC50) were defined as sensitive to the compound)

Question: And the “True Class” value (HS578T breast cell line; Hs578T, assigned as in Table 1, based on the IC50 results for BMS-A)?
Answer: S

Question: And the IC50 (MCF7 breast cell line; [5])?
Answer: > 9.52 µM

Question: And the “True Class” value (MCF7 breast cell line; [6])?
Answer: R

Question: And the Classification (MCF7 breast cell line; [7])?
Answer: Resistant (those having a log10(IC50) above the mean log10(IC50) were considered to be resistant)

Question: And the IC50 ([4]; MDA-MB-453, 72 hours, mean of 2 to 5 determinations, read-out: mean IC50 (μM) to BMS-A)?
Answer: > 9.52 µM

Question: And the Classification ([4]; MDA-MB-453, resistance/sensitivity to BMS-A based on IC50)?
Answer: Resistant (those having a log10(IC50) above the mean log10(IC50) were considered to be resistant)

Question: And the “True Class” value ([4]; MDAMB453, assigned as in Table 1, based on the IC50 results for BMS-A)?
Answer: R
